Assay results as given in ChEMBL document CHEMBL5143734, “Seco-Lupane Triterpene Derivatives Induce Ferroptosis through GPX4/ACSL4 Axis and Target Cyclin D1 to Block the Cell Cycle” (J Med Chem, 2022).

How the values were obtained:
Assay type in all cases: functional, cell-based
MCF7 = experiment: Cytotoxicity against human MCF7 cells assessed as reduction in cell viability by CCK-8 assay
A549 = experiment: Cytotoxicity against human A549 cells assessed as reduction in cell viability by CCK-8 assay
PANC-1 = experiment: Cytotoxicity against human PANC-1 cells assessed as reduction in cell viability by CCK-8 assay
HepG2 = experiment: Cytotoxicity against human HepG2 cells assessed as reduction in cell viability by CCK-8 assay
PC-3M = experiment: Cytotoxicity against human PC-3M cells assessed as reduction in cell viability by CCK-8 assay

Row | Compound | IC50 (MCF7) [µM] | IC50 (A549) [µM] | IC50 (PANC-1) [µM] | IC50 (HepG2) [µM] | IC50 (PC-3M) [µM]
1 | C=C(C)[C@@H]1CC[C@]2(C(=O)OCCCCCCBr)CC[C@]3(C)[C@H](C[C@@H](O)[C@@H]4[C@@]5(C)C(CC(=O)OC)OC(C)(C)C5CC[C@]43C)[C@@H]12 (stereo not given in full) | 73 | 45.5 | 37.5 | 22.2 | 29
2 | C=C(C)[C@@H]1CC[C@]2(C(=O)OCCCCCn3ccnc3CC)CC[C@]3(C)[C@H](C[C@@H](O)[C@@H]4[C@@]5(C)C(CC(=O)OC)OC(C)(C)C5CC[C@]43C)[C@@H]12 (stereo not given in full) | 45.5 | 25.9 | 26.8 | 14.1 | 23.9
3 | C=C(C)[C@@H]1CC[C@]2(C(=O)OCCCCn3ccnc3C)CC[C@]3(C)[C@H](C[C@@H](O)[C@@H]4[C@@]5(C)C(CC(=O)OC)OC(C)(C)C5CC[C@]43C)[C@@H]12 (stereo not given in full) | 67.3 | 31.4 | 48.3 | 21.7 | 36
4 | C=C(C)[C@@H]1CC[C@]2(C(=O)OCCCCCCCCCCn3ccnc3C)CC[C@]3(C)[C@H](C[C@H]4OC(=O)C[C@@H](O)[C@]5(C)[C@@H]4[C@@]3(C)CC[C@H]5C(=C)C)[C@@H]12 | 23.5 | 11.7 | 10.1 | 3.02 | 8.63
5 | C=C(C)[C@@H]1CC[C@]2(C(=O)OCCCn3cnc(C)c3)CC[C@]3(C)[C@H](C[C@H]4OC(=O)C[C@@H](O)[C@]5(C)[C@@H]4[C@@]3(C)CC[C@H]5C(=C)C)[C@@H]12 | 48.6 | 39.5 | 83.8 | 35.3 | 18.5
6 | C=C(C)[C@@H]1CC[C@]2(C(=O)O)CC[C@]3(C)[C@H](C[C@H]4OC(=O)C[C@@H](O)[C@]5(C)[C@@H]4[C@@]3(C)CC[C@H]5C(=C)C)[C@@H]12 | > 200 | 145 | > 200 | > 200 | 134
7 | C=C(C)[C@@H]1CC[C@]2(C(=O)OCCCn3ccnc3CC)CC[C@]3(C)[C@H](C[C@@H](O)[C@@H]4[C@@]5(C)C(CC(=O)OC)OC(C)(C)C5CC[C@]43C)[C@@H]12 (stereo not given in full) | 66.2 | 27.4 | 47.7 | 18.9 | 24.9
8 | C=C(C)[C@@H]1CC[C@]2(C(=O)OCCCCCCn3cc(CCN)c4ccccc43)CC[C@]3(C)[C@H](C[C@@H](O)[C@@H]4[C@@]5(C)C(CC(=O)OC)OC(C)(C)C5CC[C@]43C)[C@@H]12 (stereo not given in full) | 24.5 | 5.97 | 7.06 | 1.91 | 3.99
9 | C=C(C)[C@@H]1CC[C@]2(C(=O)OCCCCCCn3ccnc3CC)CC[C@]3(C)[C@H](C[C@H]4OC(=O)C[C@@H](O)[C@]5(C)[C@@H]4[C@@]3(C)CC[C@H]5C(=C)C)[C@@H]12 | 48.8 | 14.6 | 17.5 | 3.59 | 12.9
10 | C=C(C)[C@@H]1CC[C@]2(C(=O)OCCCCCCCCCCn3cc(CCN)c4ccccc43)CC[C@]3(C)[C@H](C[C@@H](O)[C@@H]4[C@@]5(C)C(CC(=O)OC)OC(C)(C)C5CC[C@]43C)[C@@H]12 (stereo not given in full) | 25.5 | 7.97 | 5.63 | 2.11 | 5.7
11 | C=C(C)[C@@H]1CC[C@]2(C(=O)OCCCCCCn3ccnc3CC)CC[C@]3(C)[C@H](C[C@@H](O)[C@@H]4[C@@]5(C)C(CC(=O)OC)OC(C)(C)C5CC[C@]43C)[C@@H]12 (stereo not given in full) | 34.5 | 24.1 | 18.5 | 16.9 | 19.6
12 | C=C(C)[C@@H]1CC[C@]2(C(=O)OCCCCCCCCCCn3ccnc3C)CC[C@]3(C)[C@H](C[C@@H](O)[C@@H]4[C@@]5(C)C(CC(=O)OC)OC(C)(C)C5CC[C@]43C)[C@@H]12 (stereo not given in full) | 19.4 | 19.5 | 7.95 | 4.91 | 10.3
13 | C=C(C)[C@@H]1CC[C@]2(C(=O)OCCCCCBr)CC[C@]3(C)[C@H](C[C@@H](O)[C@@H]4[C@@]5(C)C(CC(=O)OC)OC(C)(C)C5CC[C@]43C)[C@@H]12 (stereo not given in full) | 80 | 40.6 | 54.9 | 27.7 | 44.1
14 | C=C(C)[C@@H]1CC[C@]2(C(=O)OCCCCn3ccnc3C)CC[C@]3(C)[C@H](C[C@H]4OC(=O)C[C@@H](O)[C@]5(C)[C@@H]4[C@@]3(C)CC[C@H]5C(=C)C)[C@@H]12 | 77.6 | 48.4 | 56.5 | 27.8 | 30
15 | C=C(C)[C@@H]1CC[C@]2(C(=O)OCCCCCCCCCCn3ccnc3)CC[C@]3(C)[C@H](C[C@H]4OC(=O)C[C@@H](O)[C@]5(C)[C@@H]4[C@@]3(C)CC[C@H]5C(=C)C)[C@@H]12 | 44.9 | 17.2 | 11.3 | 4.23 | 11.8
